This is an account of results in patent publication US12180183B2, “Water-soluble fluorescent probe and nanoparticals with aggregation-induced emission effect for ovarian cancer and preparation method and use thereof” (HUNAN TARGETING DETECTION TECHNOLOGY CO., LTD, priority 2018, dated 2024).

Data set [1] in a line: Dynamic light scattering of the self-assembled probe nanoparticles. It is filed as physicochemical. As to conditions: compound 3 20 μM in phosphate buffer solution pH=7.4, dynamic light scattering. The procedure:
(§1) 40 μL of compound 3 (1 mM) in a phosphate buffer solution was taken by using a pipette and placed in an ep-tube. 1960 μL of a phosphate buffer solution (pH=7.4) was added into the ep-tube under an ultrasonic condition so that the final concentration of compound 3 was 20 μM. The mixture was stirred for 30 min under room temperature to generate opalescence. In order to verify nano-aggregation behavior thereof, an average particle size thereof measured by a dynamic light scattering experiment was 600 nm, as shown in FIG. 1.

The nature of data set [2]: Linear relationship between fluorescence intensity of the probe nanoparticles and lysophosphatidic acid concentration. As to conditions: compound 3 20 μM, phosphate buffer pH 7.4, incubated 1 min at room temperature. The procedure:
as §1
A series of different volumes of the stock solution of lysophosphatidic acid in the phosphate buffer solution were respectively added to the system prepared in Example 2, so that the final concentrations of lysophosphatidic acid respectively were 0 μM, 0.2 μM, 0.4 μM, 0.8 μM, 1.0 μM, 1.2 μM, 1.4 μM, 1.8 μM, 2.0 μM, 4.0 μM, 8.0 μM, 10.0 μM, 12.0 μM, 14.0 μM, 16.0 μM, 18.0 μM, 20.0 μM, 25.0 μM, 30.0 μM, 33.0 μM. After all of testing solution were prepared, the testing solutions were mixed uniformly with a vortex. After being incubated for 1 min at room temperature, the fluorescence emission intensity thereof at 557 was measured.

Data set [3] is described as follows: Selectivity of the fluorescent nanoprobe for detecting lysophosphatidic acid. As to conditions: compound 3 10 μM, excitation 400 nm. On the procedure:
The prepared fluorescent molecular probe solution was used for evaluating the selectivity of the probe to lysophosphatidic acid. An excitation wavelength of the nanoprobe was 400 nm. The concentration of the compound 3 in the system was 10 μM. Lysophosphatidic acid with a final concentration of 50 μM and L-proline, glycerin, sodium phosphate, magnesium sulfate, sodium acetate, sodium nitrate, sodium fluoride, glucose, urea, and lysophosphatidyl choline (LPC) with a final concentration of 1 mM were respectively added into the system. After fully mixing, the systems were incubated for 1 min at room temperature. Then fluorescence emission spectra thereof were measured and the fluorescence emission intensities at 557 nm were recorded.

The molecule `COc1ccc(-c2nc(-c3cc[n+](CCCCCCCCCCCC[n+]4ccccc4)cc3)n(-c3ccccc3)c2-c2ccc(OC)cc2)cc1` [Compound 3] came in with an average particle size in data set [1] of 600 nm. Besides, the “lysophosphatidic acid concentration range with good linear relationship to fluorescence intensity at 557 nm” value in data set [2] is 0 to 33 µM. Besides, the “fluorescence emission at 557 nm after addition of lysophosphatidic acid” value in data set [3] (lysophosphatidic acid 50 μM, 1 min at room temperature) is “strong yellow fluorescence”. Besides, the “fluorescence emission at 557 nm after addition of other substances” value in data set [3] (L-proline, glycerin, sodium phosphate, magnesium sulfate, sodium acetate, sodium nitrate, sodium fluoride, glucose, urea, LPC each 1 mM) was “could not be observed to generate yellow fluorescence”.
